≈ marks a conversion by molar mass, not a printed value.

Experiment [1] deals with Staphylococcus epidermidis EP11. Description: agar-dilution MIC. In kind it is cell-based.
For experiment [2], the system named is Streptococcus pneumoniae Park 1. In kind it is cell-based. To be noted: agar dilution. A general note: In agar dilution, organisms are placed on agar that contains the substance at set levels.
The test system of experiment [3] is Streptococcus pyrogenes C203. Description: agar-dilution MIC. The format is cell-based.
Experiment [4] has as its system Haemophilus influenzae 76. Description: agar-dilution MIC. The format is cell-based.
The subject of experiment [5] is Haemophilus influenzae C.L. The experiment in a line: agar-dilution MIC. The format is cell-based.
Experiment [6] relates to Streptococcus faecium ATCC 9790. The experiment in a line: agar-dilution MIC. In kind it is cell-based.
Experiment [7] relates to Staphylococcus aureus NRRL B313. The experiment in a line: agar-dilution MIC. The format is cell-based.
The test system of experiment [8] is Staphylococcus epidermidis 222. Description: agar-dilution MIC. In kind it is cell-based.
Experiment [9] relates to Streptococcus sp. group D 2041. Description: agar-dilution MIC. The format is cell-based.
Experiment [10] deals with Staphylococcus aureus V41. The experiment in a line: agar-dilution MIC. In kind it is cell-based.
Another experiment has as its system Staphylococcus aureus. Description: experimental bacterial infection in mice, ED50. The format is in vivo. The conditions noted are these: two doses, subcutaneously. The protocol: (§1) Some of the compounds of this invention have also shown in vivo antimicrobial activity against experimental bacterial infections. When two doses of test compound were administered to mice in experimental infections, the activity observed was measured as an ED50 value [effective dose in mg/kg to protect 50% of the test animals: see Warren Wick, et al., J. Bacteriol. 81, 233-235 (1961)].

Another experiment has as its system Streptococcus pyogenes. Description: experimental bacterial infection in mice, ED50. In kind it is in vivo. The conditions noted are these: two doses, subcutaneously. The procedure:
as §1

The next experiment relates to Streptococcus pneumoniae. Description: experimental bacterial infection in mice, ED50. The format is in vivo. The conditions noted are these: two doses, subcutaneously. The procedure: as §1
In experiment [11] the test system is Staphylococcus aureus X400. Description: agar-dilution MIC. In kind it is cell-based.
Experiment [12] concerns Staphylococcus aureus S13E. In kind it is cell-based. To be noted: agar dilution.

As for `CN[C@H](CC(C)C)C(=O)N[C@H]1C(=O)N[C@@H](CC(N)=O)C(=O)N[C@H]2C(=O)N[C@H]3C(=O)N[C@H](C(=O)N[C@H](C(=O)O)c4cc(O)cc(O)c4-c4cc3ccc4O)[C@H](O)c3ccc(c(Cl)c3)Oc3cc2cc(c3O[C@@H]2O[C@H](CO)[C@@H](O)[C@H](O)[C@H]2O[C@H]2C[C@](C)(NC(=O)CC(C)c3cccs3)[C@H](O)[C@H](C)O2)Oc2ccc(cc2Cl)[C@H]1O` (stereo partly drawn) [Compound 7, N^van --[1-oxo-3-(2-thienyl)-n-butyl]vancomycin], the MIC in experiment [1] was 8 µg/mL (≈ 5 µM); in experiment [2] it was 0.5 µg/mL (≈ 0.312 µM); in experiment [3], 1 µg/mL (≈ 0.624 µM); in [4], 128 µg/mL (≈ 79.9 µM); in experiment [5], “-- (-- = not active at 128 mcg/ml)”; in experiment [6] it was 2 µg/mL (≈ 1.25 µM). In addition, the MIC in [7] was determined as 1 µg/mL (≈ 0.624 µM); in experiment [8], 2 µg/mL (≈ 1.25 µM); in experiment [9] it was 4 µg/mL (≈ 2.5 µM); in [10] it was 1 µg/mL (≈ 0.624 µM); in experiment [11], 1 µg/mL (≈ 0.624 µM); in [12] it was 2 µg/mL (≈ 1.25 µM). Moreover, the ED50 with Staphylococcus aureus came to 3.05 mg/kg/2; in the experiment with Streptococcus pyogenes, 3.38 mg/kg/2; in the experiment on Streptococcus pneumoniae it was 2.3 mg/kg/2.
As for `CCCCCCCCc1ccc(C(=O)N[C@@]2(C)C[C@H](O[C@H]3[C@H](Oc4c5cc6cc4Oc4ccc(cc4Cl)[C@@H](O)[C@@H](NC(=O)[C@@H](CC(C)C)NC)C(=O)N[C@@H](CC(N)=O)C(=O)N[C@H]6C(=O)N[C@H]4C(=O)N[C@H](C(=O)N[C@H](C(=O)O)c6cc(O)cc(O)c6-c6cc4ccc6O)[C@H](O)c4ccc(c(Cl)c4)O5)O[C@H](CO)[C@@H](O)[C@@H]3O)O[C@@H](C)[C@H]2O)cc1` [Compound 2, N^van --[4-(n-octyl)benzoyl]vancomycin], the MIC in experiment [1] was 8 µg/mL (≈ 4.8 µM); in experiment [2], 0.5 µg/mL (≈ 0.3 µM); in experiment [3], 0.25 µg/mL (≈ 0.15 µM); in [4], “-- (-- = not active at 128 mcg/ml)”; in experiment [5], “-- (-- = not active at 128 mcg/ml)”; in [6], 0.125 µg/mL (≈ 0.075 µM). For the same compound, the MIC in experiment [7] turned out to be 0.5 µg/mL (≈ 0.3 µM); in experiment [8] it was 1 µg/mL (≈ 0.6 µM); in experiment [9], 0.125 µg/mL (≈ 0.075 µM); in experiment [10], 0.5 µg/mL (≈ 0.3 µM); in [11], 0.5 µg/mL (≈ 0.3 µM); in experiment [12], 0.5 µg/mL (≈ 0.3 µM). The figures for the ED50 in the experiment with Staphylococcus aureus, in the experiment on Streptococcus pyogenes and in the experiment with Streptococcus pneumoniae were 3.78 mg/kg/2, 1.0 mg/kg/2 and 0.72 mg/kg/2, respectively.

Source of the values: US4643987A, “Modified glycopeptides” (Eli Lilly and Company, priority 1985, dated 1987).
